Drawing on publication PMC5453487, “Targeting YAP/TAZ-TEAD protein-protein interactions using fragment-based and computational modeling approaches” (PLoS ONE, 2017), this text covers Kd for one compound.

The target in this experiment is mouse TEAD4 (mTEAD4) (Mus musculus, UniProt Q62296). Nature of the experiment: X-ray co-crystal structure ([…] Å), ITC; also thermal shift assay and MST ([…]). In kind it is binding.

Structures are written as SMILES.

Chain of mouse TEAD4 (mTEAD4) (Q62296 210-427): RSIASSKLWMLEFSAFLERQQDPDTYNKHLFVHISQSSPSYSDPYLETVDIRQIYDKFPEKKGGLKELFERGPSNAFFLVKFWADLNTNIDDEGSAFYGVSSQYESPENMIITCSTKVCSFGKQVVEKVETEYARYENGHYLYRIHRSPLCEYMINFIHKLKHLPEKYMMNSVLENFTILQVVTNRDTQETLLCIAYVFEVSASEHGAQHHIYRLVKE

By Kd is commonly meant the constant that tells how readily two partners part at equilibrium. With `O=C(O)C(c1ccccc1)n1cccc1` (stereo not shown) [compound 1, fragment 1], the Kd is approximately 300 µM.
